Our source for the IC50, viability, T/C and outcome values is PubChem BioAssay AID1845209 (Molecular Pharmacology Branch, DTP, NCI, 2023).

“And” between values parts separate entries of the source, which are not always exact repeats. Equal values may be shown once. The source made the active and inactive calls. How the source made its calls: active means viability on the fitted dose curve at most 10% of control; inactive means the rest.

This assay has as its system NCI-H211 tumor spheroids, viability percent test/control. As to the kind of experiment: Anticancer human tumor NCI-H211 cell line growth inhibition.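 On IC50: spheroids exposed to agents for seven days before readout.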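 On viability, T/C: spheroids exposed to agents for seven days before readout.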 To be noted: spheroids with HUVEC and MSC; for viability, T/C: stronger effect = lower value. In outline:
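Complex tumor spheroids combined malignant cells with endothelial cells and mesenchymal stem cells. DNA-damaging drugs and DNA repair inhibitors were tested alone and in combination, at half-log dilutions down from clinical Cmax (top 10 microM if Cmax unknown), 0.25% DMSO final.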

Setting [1] is: curve of first compound, second compound 30 pM.
The mark [2] stands for this setting: curve of first compound, second compound 94.9 pM.
[3] abbreviates: curve of first compound, second compound 0.0003 µM.
[4] abbreviates: curve of first compound, second compound 0.000949 µM.
The mark [5] stands for this setting: curve of first compound, second compound 0.003 µM.
[6] abbreviates: second compound 30 pM, first compound 0.0316 µM.
Setting [7] is: second compound 30 pM, first compound 0.1 µM.
Where [8] appears, read: second compound 30 pM, first compound 0.316 µM.
Where [9] appears, read: second compound 30 pM, first compound 1 µM.
Setting [10] is: second compound 30 pM, first compound 3.16 µM.
Setting [11] is: second compound 30 pM, first compound 10 µM.
Setting [12] is: second compound 94.9 pM, first compound 0.0316 µM.
[13] abbreviates: second compound 94.9 pM, first compound 0.1 µM.
[14] abbreviates: second compound 94.9 pM, first compound 0.316 µM.
[15] abbreviates: second compound 94.9 pM, first compound 1 µM.
The mark [16] stands for this setting: second compound 94.9 pM, first compound 3.16 µM.
The mark [17] stands for this setting: second compound 94.9 pM, first compound 10 µM.
The mark [18] stands for this setting: second compound 0.0003 µM, first compound 0.0316 µM.
The mark [19] stands for this setting: second compound 0.0003 µM, first compound 0.1 µM.
Setting [20] is: second compound 0.0003 µM, first compound 0.316 µM.
Setting [21] is: second compound 0.0003 µM, first compound 1 µM.
[22] abbreviates: second compound 0.0003 µM, first compound 3.16 µM.
Where [23] appears, read: second compound 0.0003 µM, first compound 10 µM.
[24] abbreviates: second compound 0.000949 µM, first compound 0.0316 µM.
Setting [25] is: second compound 0.000949 µM, first compound 0.1 µM.
[26] abbreviates: second compound 0.000949 µM, first compound 0.316 µM.
Where [27] appears, read: second compound 0.000949 µM, first compound 1 µM.
Setting [28] is: second compound 0.000949 µM, first compound 3.16 µM.
The mark [29] stands for this setting: second compound 0.000949 µM, first compound 10 µM.
[30] abbreviates: second compound 0.003 µM, first compound 0.0316 µM.
Setting [31] is: second compound 0.003 µM, first compound 0.1 µM.
Setting [32] is: second compound 0.003 µM, first compound 0.316 µM.
The mark [33] stands for this setting: second compound 0.003 µM, first compound 1 µM.
Where [34] appears, read: second compound 0.003 µM, first compound 3.16 µM.
The mark [35] stands for this setting: second compound 0.003 µM, first compound 10 µM.

In general, IC50 refers to the concentration that gives 50% inhibition. The viability, T/C is the ratio of treated to control. For `Cc1cc(C)c(CNC(=O)c2cc(-c3ccc(CN4CCOCC4)cc3)cc3c2cnn3C2CCCC2)c(=O)[nH]1` + COc1cc2c(cc1O)CCNC21CSC2c3c(OC(C)=O)c(C)c4c(c3C(COC1=O)N1C(O)C3Cc5cc(C)c(OC)c(O)c5C(C21)N3C)OCO4, the IC50 under setting [1] was 2730 nM; the IC50 under setting [2] was below 31.6 nM; the IC50 under setting [3] is below 31.6 nM; the IC50 under setting [4] was below 31.6 nM; the IC50 under setting [5] is below 31.6 nM. For the same molecule, the viability, T/C was 98.1% under setting [6]; 113% under setting [7]; 99.7% under setting [8]; 73.2% under setting [9]; 48.8% under setting [10]; 7.15% under setting [11]. For the same molecule, the viability, T/C by setting is: under setting [12], 17.6%; under setting [13], 12.4%; under setting [14], 13.5%; under setting [15], 4.52%; under setting [16], 2.44%; under setting [17], 0.74%. Also, the viability, T/C reads like this: under setting [18], 0.75%; under setting [19], 0.76%; under setting [20], 0.76%; under setting [21], 0.76%; under setting [22], 1.22%; under setting [23], 1.03%. Also, the viability, T/C was 0.66% under setting [24]; 0.82% under setting [25]; 0.75% under setting [26]; 0.96% under setting [27]; 0.65% under setting [28]; 0.68% under setting [29]. In addition, the viability, T/C reads like this: under setting [30], 0.13%; under setting [31], 0.11%; under setting [32], 0.11%; under setting [33], 0.61%; under setting [34], 0.4%; under setting [35], 0.33%.

In the case of `COc1cc(C)[nH]c(=O)c1CN1CCc2c(Cl)cc(C(OC)C3COC3)c(Cl)c2C1=O` (stereo not given), the viability, T/C was 98.9% and 97.3% and 103% (compound 0.0316 µM); 92.9% and 105% and 99.4% (compound 0.1 µM); 81.8% and 93.7% and 96.8% (compound 0.316 µM); 92.6% and 78.5% and 88.5% (compound 1 µM); 87.9% and 84.4% and 87.8% (compound 3.16 µM); 83.7% and 89.1% and 85.7% (compound 10 µM). The IC50 (curve of compound) is above 10000 nM.

On to `COc1ccc([C@@H](O)c2cc(-c3ncnc4cc(N5CCOCC5)ccc34)c(F)cc2Cl)nn1`, for which the viability, T/C is 102% and 96.3% and 105% (compound 0.0316 µM); 100% and 102% and 109% (compound 0.1 µM); 95.9% and 93.1% and 104% (compound 0.316 µM); 90.3% and 101% (compound 1 µM); 74.8% and 85% and 96% (compound 3.16 µM); 11.4% and 40.7% and 40.8% (compound 10 µM). The result (compound 1 µM) was inactive. Under “curve of compound”, the IC50 is 4870 nM and 7850 nM and 8300 nM.

On to `CC1COCCN1c1cc(-c2ccnn2C)c2ccnc(-c3ccn[nH]3)c2n1` (stereo not given) + COc1cc2c(cc1O)CCNC21CSC2c3c(OC(C)=O)c(C)c4c(c3C(COC1=O)N1C(O)C3Cc5cc(C)c(OC)c(O)c5C(C21)N3C)OCO4, for which the IC50 is below 31.6 nM under setting [1]; below 31.6 nM under setting [2]; below 31.6 nM under setting [3]; below 31.6 nM under setting [4]; below 31.6 nM under setting [5]. Moreover, the viability, T/C under setting [6] was 0.76%; the viability, T/C under setting [7] was 0.64%; the viability, T/C under setting [8] is 0.52%; the viability, T/C under setting [9] was 0.4%; the viability, T/C under setting [10] is 0.43%; the viability, T/C under setting [11] is 0.49%. Further, the viability, T/C by setting is: under setting [12], 0.75%; under setting [13], 0.74%; under setting [14], 0.62%; under setting [15], 0.38%; under setting [16], 0.35%; under setting [17], 0.42%. For the same molecule, the viability, T/C by setting is: under setting [18], 0.75%; under setting [19], 0.89%; under setting [20], 0.57%; under setting [21], 0.78%; under setting [22], 0.3%; under setting [23], 0.36%. Besides, the viability, T/C by setting is: under setting [24], 0.61%; under setting [25], 0.63%; under setting [26], 0.48%; under setting [27], 0.81%; under setting [28], 0.36%; under setting [29], 0.71%. The viability, T/C reads like this: under setting [30], 0.1%; under setting [31], 0.1%; under setting [32], 0.31%; under setting [33], 0.1%; under setting [34], 0.46%; under setting [35], 0.54%.
